In PMC12396409, “Screening and hit evaluation of a microbial metabolite library against the pathogenic Plasmodium falciparum and Toxoplasma gondii parasites” (International Journal for Parasitology: Drugs and Drug …, 2025):
Like-named read-outs stand apart in the source and are kept apart here.

Key:
[1] = tested on: P. falciparum 3D7 parasites; assay: P. falciparum growth inhibition assay, 1-cycle (72 h treatment), SYBR DNA staining (library screen at 2 μg/mL and dose-response); format: cell-based, Plasmodium falciparum; details: 72 h; for activity at 2 µg/mL: Plasmodium falciparum
[2] = tested on: P. falciparum 3D7 parasites; assay: P. falciparum growth inhibition assay, 2-cycle (120 h treatment), delayed-death screen and dose-response; format: cell-based, Plasmodium falciparum; details: for activity at 2 µg/mL: Plasmodium falciparum
[3] = tested on: T. gondii RH strain (RH-Tub-eYFP) tachyzoites; assay: microbe, parasite or virus in culture; format: cell-based, Toxoplasma gondii; details: 72 h; for percent parasite growth at 2 µg/mL: Toxoplasma gondii
[4] = P. falciparum, screen at 2 μg/mL, replicate 1
[5] = P. falciparum, screen at 2 μg/mL, replicate 2
[6] = P. falciparum, 120 h, screen at 2 μg/mL, replicate 1
[7] = P. falciparum, 120 h, screen at 2 μg/mL, replicate 2
[8] = T. gondii, screen at 2 μg/mL, replicate 1
[9] = T. gondii, screen at 2 μg/mL, replicate 2
[10] = T. gondii, screen at 2 μg/mL, replicate 1, read-out: Tg_72h_%Growth_Rep1
[11] = T. gondii, screen at 2 μg/mL, replicate 2, read-out: Tg_72h_%Growth_Rep2
[12] = 3D7, P. falciparum, screen at 2 μg/mL, replicate 1, read-out: Pf_72h_%Growth_Rep1
[13] = 3D7, P. falciparum, screen at 2 μg/mL, replicate 2, read-out: Pf_72h_%Growth_Rep2
[14] = 3D7, P. falciparum, 120 h, screen at 2 μg/mL, replicate 1, read-out: Pf_120h_%Growth_Rep1
[15] = 3D7, P. falciparum, 120 h, screen at 2 μg/mL, replicate 2, read-out: Pf_120h_%Growth_Rep2
[16] = library screen at 2 μg/mL, % growth, replicate 1
[17] = library screen at 2 μg/mL, % growth, replicate 2
[18] = library screen at 2 μg/mL, 120 h, % growth, replicate 1
[19] = library screen at 2 μg/mL, 120 h, % growth, replicate 2

With CN1C(=O)c2ccccc2NC(=O)[C@@H]1Cc1ccccc1 [Cyclopeptine] the Pf_72h_%Growth_Rep1 [1, 4] was 53.40%, the Pf_72h_%Growth_Rep2 [1, 5] was 63.93% and the Pf_120h_%Growth_Rep1 [2, 6] was 15.88%. It also gave a Pf_120h_%Growth_Rep2 [2, 7] of 61.17%, a Tg_72h_%Growth_Rep1 [3, 8] of 139.33% and a Tg_72h_%Growth_Rep2 [3, 9] of 93.22%.

With CC(=O)O[C@H]1CC[C@]2(C)[C@H]3CC[C@]4(C)Oc5cc(C)oc(=O)c5C[C@H]4[C@]3(C)CC[C@H]2C1(C)C [Chevalone B] the “1) Growth (%) at 72 h” value ([1]; P. falciparum, 2 μg/mL) was 25.41%, the Mean ([1]; P. falciparum, 2 μg/mL, mean of both replicates, growth (% of control)) was 25.41 and the Pf_72h_%Growth_Rep1 [1, 4] was 12.18%. The Pf_72h_%Growth_Rep2 [1, 5] was 38.64%, the “2) Growth (%) at 120 h” value ([2]; P. falciparum, 2 μg/mL, 120 h) was 17.52% and the Pf_120h_%Growth_Rep1 [2, 6] was 13.73%. For the same compound, the Pf_120h_%Growth_Rep2 [2, 7] was 21.31%, the “3) Fold change (72 h/120 h)” value ([2]; P. falciparum, growth at 72 h / growth at 120 h, 2 μg/mL) was 1.5 and the Tg_72h_%Growth_Rep1 [3, 8] was 78.55%. For the same compound, the Tg_72h_%Growth_Rep2 [3, 9] was 94.84%.

CN(CC[C@H](N)CC(=O)N[C@H]1C=C[C@H](n2ccc(N)nc2=O)O[C@@H]1C(=O)O)C(=N)N [Blasticidin S] showed an activity at 2 µg/mL ([1]; 3D7, 72 h, P. falciparum, screen at 2 μg/mL, replicate 1, read-out: Pf_72h_%Growth_Rep1) of 4.31%, an activity at 2 µg/mL ([1]; 3D7, 72 h, P. falciparum, screen at 2 μg/mL, replicate 2, read-out: Pf_72h_%Growth_Rep2) of 2.87% and an activity at 2 µg/mL ([2]; 3D7, 120 h, P. falciparum, 120 h, screen at 2 μg/mL, replicate 1, read-out: Pf_120h_%Growth_Rep1) of 5.52%. The activity at 2 µg/mL ([2]; 3D7, 120 h, P. falciparum, 120 h, screen at 2 μg/mL, replicate 2, read-out: Pf_120h_%Growth_Rep2) was -7.54%, the percent parasite growth at 2 µg/mL [3, 10] was 73.3% and the percent parasite growth at 2 µg/mL [3, 11] was 30%.

CC[C@H]1OC(=O)[C@H](C)C(=O)[C@H](C)[C@@H](O[C@@H]2O[C@H](C)C[C@H](N(C)C)[C@H]2O)[C@](C)(OC)C[C@@H](C)C(=O)[C@H](C)[C@H]2N(CCCCn3cnc(-c4cccnc4)c3)C(=O)O[C@]12C [Telithromycin] was tested, and the activity at 2 µg/mL [1, 12] was 42.3%, the activity at 2 µg/mL [1, 13] was 40.6% and the activity at 2 µg/mL [2, 14] was 50.8%. The activity at 2 µg/mL [2, 15] was 9.42%, the percent parasite growth at 2 µg/mL [3, 10] was 56.9% and the percent parasite growth at 2 µg/mL [3, 11] was 55.2%.

Compound COC1=C(O)c2c(O)cc(C)c3c(O)cc(O)c(c23)C1=O [Funalenone] has a Pf_72h_%Growth_Rep1 [1, 16] of 89.99%, a Pf_72h_%Growth_Rep2 [1, 17] of 108.10% and a Pf_120h_%Growth_Rep1 [2, 18] of 97.73%. The Pf_120h_%Growth_Rep2 [2, 19] was 107.04%, the Tg_72h_%Growth_Rep1 [3, 16] was 131.40% and the Tg_72h_%Growth_Rep2 [3, 17] was 92.93%.

In the case of COc1c(CC(C)O)c2c3c(CC(C)O)c(OC)c(=O)c4c(O)cc5c(c6c(cc(O)c(c1=O)c62)OCO5)c43 (stereo not shown) [Cercosporin], the activity at 2 µg/mL [1, 12] is reported as 9.71%, the activity at 2 µg/mL [1, 13] is reported as 9.49% and the activity at 2 µg/mL [2, 14] is reported as 7.99%. It also gave an activity at 2 µg/mL [2, 15] of 4.28%, a percent parasite growth at 2 µg/mL [3, 10] of 4.15% and a percent parasite growth at 2 µg/mL [3, 11] of 11.5%.

Compound CN(N=O)C(=O)N[C@H]1C(O)O[C@H](CO)[C@@H](O)[C@@H]1O (mixture of isomers) [Streptozotocin] has a Pf_72h_%Growth_Rep1 ([1]; P. falciparum, parasite screen 2 μg/mL, % growth, replicate 1) of 87.59%, a Pf_72h_%Growth_Rep2 ([1]; P. falciparum, parasite screen 2 μg/mL, % growth, replicate 2) of 86.69% and a Pf_120h_%Growth_Rep1 ([2]; P. falciparum, 120 h, parasite screen 2 μg/mL, % growth, replicate 1) of 176.62%. It also gave a Pf_120h_%Growth_Rep2 ([2]; P. falciparum, 120 h, parasite screen 2 μg/mL, % growth, replicate 2) of 92.69%, a Tg_72h_%Growth_Rep1 ([3]; T. gondii, parasite screen 2 μg/mL, % growth, replicate 1) of 87.36% and a Tg_72h_%Growth_Rep2 ([3]; T. gondii, parasite screen 2 μg/mL, % growth, replicate 2) of 105.65%.

Compound CO/C1=C\C(C)=C\C(C)C(O)C(C)C/C(C)=C/C=C/C(OC)C(C(C)C(O)C(C)C2(O)CC(OC(=O)/C=C/C(=O)O)C(C)C(C(C)C)O2)OC1=O (stereo not shown) [Bafilomycin C1] has a Pf_72h_%Growth_Rep1 [1, 16] of 1.92%, a Pf_72h_%Growth_Rep2 [1, 17] of 0.47% and a Pf_120h_%Growth_Rep1 [2, 18] of 3.53%. The Pf_120h_%Growth_Rep2 [2, 19] was -2.55%, the Tg_72h_%Growth_Rep1 [3, 16] was -0.73% and the Tg_72h_%Growth_Rep2 [3, 17] was -0.13%.
